Legend:
aPKC [1] = assay: aPKC activity in brains of heterozygous muscle-specific PKC-λ knockout mice (Western); format: in vivo, mouse; details: treated for 8 days
Procedure: Standard lab mice (“control” or “con” mice) and heterozygous muscle-specific PKC-λ knockout mice were fed standard chow containing 10% fat. Some mice were treated for 8 days with ICAPP. Some mice were acutely treated with insulin (1 U/kg body weight administered intraperitoneally) 15 minutes prior to killing. Brain tissues were collected and prepared for phospho-protein analysis. Activity/activation of aPKC was assessed by Western blot analyses of phospho-protein immunoreactivity followed by quantitative scanning of the blots.

Akt2 = molecular target: T1, Akt2 (Mus musculus, UniProt Q60823); assay: Akt2 activity in liver and muscle of HFF mice, 10 weeks treatment; format: in vivo; details: daily s.c. 10 weeks
T1 construct: from tissue; host or cells: mouse liver and muscle

[2] = Glucose tolerance, serum parameters, body weight, food intake, liver and abdominal fat in HFF mice; format: in vivo, mouse
Procedure: Briefly, […] body weight was injected intraperitoneally. After the glucose injection, blood glucose levels were measured at 0, 30, 60, 90 and 120 minutes post-injection. 15 minutes prior to killing, mice were injected with or without insulin (1 U/kg body weight). Serum glucose, triglycerides, and serum cholesterol were measured using methods generally known in the art. Liver triglycerides were also measured using methods generally known in the art. Over the 10 weeks, body weight and food intake were measured weekly. Overall change in bodyweight was also evaluated. Additionally, epididymal plus retroperitoneal fat (also abbreviated PG/PN fat) was measured and evaluated as g/100 g of body weight. After killing, liver tissue samples were sectioned and prepared for Oil red O staining by methods generally known in the art. Samples were Oil Red O stained to observe hepatic fat contents.

FoxO1, WD40/ProF = assay: Hepatic Ser256-FoxO1 phosphorylation and aPKC/Akt in WD40/ProF immunoprecipitates in HFF mice; format: in vivo, mouse; details: 10 weeks
Procedure: (§1) Post mortem, liver tissue was removed and examined for immunoreactivity of the indicated signaling factors.
For the results shown in FIG. 10A, liver cell lysates were prepared as previously described. Phosphorylated FoxO1 and un-phosphorylated FoxO1 were analyzed using western blotting as previously described except rabbit anti-phospho-Ser^256-FoxO1 antisera and anti-FoxO1 antiserum was used.
For the results in FIG. 10B, the indicated immunoreactive proteins were analyzed in the immunopercipitates via western blot as previously described except that rabbit anti-aPKC-λ/ι, FoxO1, or WD40/ProF antisera were used.

[3] = system: Ser473-Akt, Ser9-GSK3β, Thr555/560-PKC-λ/ζ, Thr2448-mTOR; assay: Hepatic phosphorylation of Ser473-Akt, Ser9-GSK3β, Thr555/560-PKC-λ/ζ, Thr2448-mTOR in HFF mice (Western); format: in vivo, mouse; details: 10 weeks
Procedure: as §1
Tissue Preparation: To prepare cell lysates, liver and muscle tissue samples were homogenized in ice-cold buffer containing 0.25 mol/l sucrose, 20 mmol/l Tris/HCl (pH, 7.5), 2 mmol/l EGTA, 2 mmol/l EDTA, 1 mmol/l phenlysulfonlyfluoride (PMSF), 20 μg/ml leupeptin, 10 μg/ml aprotinin, 2 mmol/l Na4P2O7, 2 mmol/l Na3VO4, 2 mmol/l NaF, and 1 μmol/l microcystin, and then supplemented with 1% TritonX-100, 0.6% Nonidet and 150 mmol/l NaCl, and cleared by low-speed centrifugation.
Western Analysis: Western analysis for the indicated signaling factors and GAPDH (endogenous control) were conducted as described in Sajan and Farese. 2012 Diabetologia. 55:1446-1457, Standaert et al. 2004. J. Biol. Chem. 279:24929-24934, Sajan et al. 2012. Metabolism. 61:459-469, Sajan et al. 2009. Diabetologia. 52:1197-1207, Sajan et al. 2009. J. Lipid Res. 50:1133-1145, and Sajan et al. 2013. Diabetologia. 56:2507-2516 using […] anti-phospho-Ser^473-Akt antiserum, rabbit anti-glyceraldehyde-phosphate dehydrogenase (GAPDH) antiserum, rabbit anti-WD40-ProF antiserum, and rabbit anti-aPKC antiserum (Santa Cruz Biotechnologies, Santa Cruz, Calif.); rabbit anti-phospho-Thr560/555 PKC-ζ/λ/ι antiserum (Invitrogen, Carlsbad, Calif.); rabbit anti-p-Ser^256-FoxO1 and anit-FoxO1 antiserum (Abnova, Walnut, Calif.); mouse monoclonal anti-PKC-λ/ι antibodies (Transduction Antibodies, Bedford, Mass.); and rabbit anti-phospho-Ser^9-GSK3β antiserum, rabbit anti-phosphoSer^[…]-mTOR antiserum, and mouse anti-Akt antibodies (Cell Signaling Technologies, Danvers, Mass.). Samples from experimental groups were compared on the same blots and corrected for recovery as needed by measurement of GAPDH immunoreactivity.

[4] = system: SREBP-1c, FAS, PEPCK, G6Pase; assay: Hepatic mRNA and protein levels of lipogenic and gluconeogenic enzymes in HFF mice; format: in vivo, mouse; details: 10 weeks, ad libitum-fed
Procedure: as §1
Nuclear preparations were also prepared as described in Sajan et al. 2009. Diabetologia. 52:1197-1207. Western analysis was conducted to evaluate the indicated immunoreactive proteins as in Example 7, except in this Example, rabbit polyclonal anti-GAPDH antiserum, rabbit polyclonal anti-FAS antiserum, rabbit polyclonal anti-PEPCK antiserum, rabbit polyclonal anti-G6Pase antiserum (Santa Cruz Biotechnologies, Santa Cruz, Calif.), and mouse monoclonal anti-SREBP-1 antibodies (Lab Vision Corp., Freemont, Calif.) were used to detect the indicated proteins.

aPKC [5] = assay: aPKC activity in liver and muscle of high fat fed (HFF) mice, 10 weeks treatment; format: in vivo, mouse; details: daily s.c. 10 weeks
aPKC [6] = assay: Effect of ceramide on aPKC immunoprecipitated from liver lysates of LF and HF fed mice; format: biochemical, mouse
Procedure: Standard (C57BI/6/SV129) mice consumed a standard low-fat or high-fat diet for 10 weeks. At 10 weeks mice were treated with or without insulin for 15 min prior to killing. Liver cell lysates were prepared as in Example 5 and aPKC activity assay was performed on the aPKC immunoprecipitate as in Example 5, except here the activity assays were carried out in the presence of the indicated concentrations of ceramide. Additionally, the levels of ceramide and sphingomyelin species in lipid extracts prepared from the liver cell lysates. Ceramide and sphingomyelin species were measured by liquid chromatography tandem mass spectrometry analysis of the lipid extracts of the liver lysates.

[7] = toward, not fully to, normal levels

T1 sequence (Q60823 whole entry): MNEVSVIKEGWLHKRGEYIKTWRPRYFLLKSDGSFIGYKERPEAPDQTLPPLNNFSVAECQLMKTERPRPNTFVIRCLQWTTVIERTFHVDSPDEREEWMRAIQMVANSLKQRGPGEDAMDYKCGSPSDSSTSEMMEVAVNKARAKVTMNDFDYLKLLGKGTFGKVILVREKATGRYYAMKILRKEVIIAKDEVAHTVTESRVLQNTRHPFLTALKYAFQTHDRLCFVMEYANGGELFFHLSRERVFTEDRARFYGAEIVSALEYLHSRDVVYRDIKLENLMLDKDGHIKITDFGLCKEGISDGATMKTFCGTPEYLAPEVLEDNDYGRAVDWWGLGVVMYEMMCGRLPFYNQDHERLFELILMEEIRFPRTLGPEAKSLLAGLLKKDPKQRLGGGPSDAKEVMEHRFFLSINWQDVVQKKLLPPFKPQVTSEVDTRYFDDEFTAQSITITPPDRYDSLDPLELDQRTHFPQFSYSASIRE

NC(=O)c1ncn([C@@H]2C[C@H](COP(=O)(O)O)[C@@H](O)[C@H]2O)c1N [ICAPP]
aPKC activity in the brain (aPKC [1]): decreased

NC(=O)c1ncn(C2CC(COP(=O)(O)O)C(O)C2O)c1N (stereo not drawn) [ICAP]
hepatic Akt2 activity (Akt2; ICAP 1 mg/kg, ACPD 10 mg/kg): increased further
muscle Akt2 activity (Akt2; [7]): increased
HFF-induced increases in abdominal fat depots ([2]; 10 weeks): improved
food intake ([2]; 10 weeks): without altering
increases in liver triglycerides and fat content ([2]; 10 weeks): largely prevented
increases in serum triglycerides and cholesterol levels ([2]; 10 weeks): largely prevented
weight gain ([2]; 10 weeks): largely prevented
fasting insulin levels ([2]; still modestly elevated): improved
glucose tolerance, basal glucose levels (fasting and fed), acute effects of insulin on serum glucose ([2]; to levels indistinguishable from control chow-fed mice): improved
WD40/ProF-associated Akt activity (FoxO1, WD40/ProF; HFF mice liver): increased
aPKC binding to WD40/ProF (FoxO1, WD40/ProF; HFF mice liver): diminished
basal/resting and insulin-stimulated hepatic FoxO1 phosphorylation (FoxO1, WD40/ProF; HFF mice): fully or partially restored
hepatic phosphorylation of Ser9-GSK3β and Ser2448-mTOR [3]: not altered
insulin-stimulated Akt2 activity in liver (Ser473-Akt phosphorylation) [3]: increased
resting Akt2 activity in liver (Ser473-Akt phosphorylation) [3]: did not alter
basal/resting and exogenous insulin-stimulated hepatic aPKC activities (Thr555/560 phosphorylation) ([3]; to levels of control low fat fed mice): reduced
hepatic mRNA levels of SREBP-1c, FAS, PEPCK, G6Pase versus control/low-fat fed mice [4]: not significantly different
hepatic protein levels of SREBP-1c, FAS, PEPCK, G6Pase versus control/low-fat fed mice [4]: not significantly different
resting and insulin-stimulated hepatic aPKC activity (aPKC [5]; ICAP 1 mg/kg, ACPD 10 mg/kg, to control levels): diminished
muscle aPKC activity (aPKC [5]; [7]): increased

ceramide
activity of aPKC immunoprecipitated from liver lysates (aPKC [6]; HFF mice): only a weak effect
activity of aPKC immunoprecipitated from liver lysates (aPKC [6]; HFF mice treated acutely with insulin): diminished activity
activity of aPKC immunoprecipitated from liver lysates (aPKC [6]; LFF/control mice): strongly activated

Source: patent publication US10688063B2, “Treating and/or preventing insulin-resistance related weight gain” (University of South Florida, priority 2013, dated 2020)
